# Reference: patent publication US20220370625A1, “THERAPEUTIC CONJUGATES” (Totus Medicines Inc., priority 2019, published 2022)
# Molecular target: T1, estrogen receptor (Homo sapiens, UniProt P03372)
# T1 construct: expressed in transfected cells; host or cells: HEK293 (Gibco 293-H), transient transfection with FuGENE HD
# T1 sequence (P03372 1-595): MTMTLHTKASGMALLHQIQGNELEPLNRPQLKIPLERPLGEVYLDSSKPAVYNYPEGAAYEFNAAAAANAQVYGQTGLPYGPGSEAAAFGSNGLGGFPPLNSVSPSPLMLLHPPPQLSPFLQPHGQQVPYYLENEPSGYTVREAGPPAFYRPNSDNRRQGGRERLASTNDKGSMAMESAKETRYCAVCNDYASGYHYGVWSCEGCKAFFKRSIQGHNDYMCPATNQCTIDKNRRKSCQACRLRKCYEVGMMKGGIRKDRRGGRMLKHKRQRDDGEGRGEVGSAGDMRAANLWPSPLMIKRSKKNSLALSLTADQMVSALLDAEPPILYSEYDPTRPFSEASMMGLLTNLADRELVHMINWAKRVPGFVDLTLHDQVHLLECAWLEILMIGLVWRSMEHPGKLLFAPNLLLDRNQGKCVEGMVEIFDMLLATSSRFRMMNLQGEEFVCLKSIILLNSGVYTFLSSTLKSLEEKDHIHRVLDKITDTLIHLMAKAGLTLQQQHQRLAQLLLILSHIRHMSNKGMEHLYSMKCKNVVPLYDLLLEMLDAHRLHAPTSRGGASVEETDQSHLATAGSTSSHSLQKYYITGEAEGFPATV
# Experiment: NanoBRET screening of ARCS (binding assay with washout) in transfected HEK293 cells
# Conditions: HEK293 cells transfected with NanoLuc-target fusion, estrogen receptor
# Experimental: Human embryonic kidney 293-H (HEK 293, Gibco 293-H, #11631017) cell lines are maintained in Dulbecco's Modified Eagle Medium, high glucose, pyruvate (DMEM, Gibco, #11995065) supplemented with 10% fetal bovine serum (FBS, Gibco, #10082147) and 1× penicillin-streptomycin (100× solution, Gibco, #15140148) at 37° C. and 5% CO2 in a water-saturated incubator. Cell are trypsinized using 0.05% or 0.25% Trypsin-EDTA solution (Trypsin-EDTA, phenol red, Gibco, #25200056 (0.25%) or #25300054). Opti-MEM media supplemented with 10% fetal bovine serum (Opti-MEM I reduced serum media, no phenol red, Gibco, #11058021) is used for culturing cells overnight for NanoBRET readout experiments.
# HEK293 cells are cultivated appropriately prior to assay. The medium from cell flask is removed via aspiration, washed 1× with PBS followed by aspiration, trypsinized, and cells are allowed to dissociate from the flask. Trypsin is neutralized using growth medium and cells are pelleted via centrifugation at 200×g for 5 minutes. The medium is aspirated and the cells are resuspended into a single cell suspension using Opti-MEM I supplemented with 10% FBS. The cell density is adjusted to 2×10^5/mL in Opti-MEM I supplemented with 10% FBS in a sterile, conical tube. The cells are transfected and aliquoted directly in a 96-well plate for the NanoBRET assay the next day, and therefore, the cells are cultured overnight in Opti-MEM. The cells are also transfected in bulk and dispensed into a 96-well plate to allow cells to adhere to the plate overnight, thereby enabling washout studies.
# The lipid:DNA complexes are prepared as follows:
# A 10 μg/mL solution of DNA is prepared in Opti-MEM without serum. This solution contains the following ratios of carrier DNA and DNA encoding NanoLuc fused to the biological target. Serial dilution steps may be warranted to accurately dilute the NanoLuc fusion DNA. Added, in order, the following reagents to a sterile polystyrene test tube: 1 mL of Opti-MEM without phenol red; 9.0 μg/mL of carrier DNA; 1.0 μg/mL of NanoLuc fusion DNA (for some targets, the amount is less). The reagents are mixed thoroughly. 30 μL of FuGENE HD is added into each mL of DNA mixture to form lipid:DNA complex. […] It is mixed by pipetting up and down 5-10 times and incubated at room temperature for 20 minutes to allow complexes to form. 1 part (e.g. 1 mL) of lipid:DNA complex is mixed with 20 parts (e.g. 20 mL) of HEK293 cells in suspension at 2×10^5/mL and mixed gently by pipetting up and down 5 times in a sterile, conical tube. Larger or smaller bulk transfections are scaled accordingly, using this ratio. 100 μL cells+lipid:DNA complex is dispensed into a sterile, tissue-culture treated 96-well plate (20,000 cells/well), and incubated at least 16 hours to allow expression. The cells are incubated in a 37° C.+5% CO2 incubator for >16 hrs. A serially diluted inhibitor or test compound is prepared at 100× final concentration in 100% DMSO. The serially diluted inhibitor stock is prepared in PCR plates. 1 μL per well of 100× serially diluted inhibitor/test compound is added to the cells in 96-well plates that have been transiently transfected overnight and mixed by tapping the plate by hand. The plate is incubated at 37° C.+5% CO2 incubator overnight. A 1× solution of substrate mix (500× stock) and appropriate concentration of tracer is prepared in Opti-Mem. The cells are washed by setting a plate washer to the 96 well plate 5× in PBS pH 7.4 by adding 200 μL PBS each time. The cells are incubated at 37° C. for 2 hours. 100 μL of the 1× Substrate-Tracer solution is added and the 96 well plate is gently tapped to mix. The plate on plate reader is read every hour for the next 6 hours.
# The binding assays of some ARCS are shown below. Compound 2-314 formed a covalent bond with an estrogen receptor of <20%. Compounds 2-302 and 2-303 formed a covalent bond with an estrogen receptor from about 50% to 70%. […]
row,Binding Potential (Percent inhibition),Structure (SMILES)
1,++ (++ 50-70%),CC1Cc2c([nH]c3ccccc23)C(c2ccc(C=CCNCC=CC(=O)N(C)C)nc2)N1CC(C)(C)F (centres unmarked) [Compound 2-302]
2,++ (++ 50-70%),CC1Cc2c([nH]c3ccccc23)C(c2c(F)cc(C=CCNCC=CC(=O)N(C)C)cc2F)N1CC(C)(C)F (centres unmarked) [Compound 2-303]
3,++++ (++++ >90%),CC1Cc2c([nH]c3ccccc23)C(c2c(F)cc(C=CCNCC=CC(=O)N(C)C)nc2F)N1CC(C)(C)F (centres unmarked) [Compound 2-304]
4,++++ (++++ >90%),C=CC(=O)NCCc1ccc(C2c3[nH]c4ccccc4c3CC(C)N2CC(C)(C)F)cn1 (centres unmarked) [Compound 2-305]
5,++++ (++++ >90%),C=CC(=O)NCCc1cc(F)c(C2c3[nH]c4ccccc4c3CC(C)N2CC(C)(C)F)c(F)n1 (centres unmarked) [Compound 2-306]
6,++++ (++++ >90%),C=CC(=O)NCCc1cc(F)c(C2c3[nH]c4ccccc4c3CC(C)N2CC(C)(C)F)c(F)c1 (centres unmarked) [Compound 2-307]
7,++++ (++++ >90%),CC#CC(=O)NCCc1ccc(C2c3[nH]c4ccccc4c3CC(C)N2CC(C)(C)F)cn1 (centres unmarked) [Compound 2-308]
8,++++ (++++ >90%),CC#CC(=O)NCCc1cc(F)c(C2c3[nH]c4ccccc4c3CC(C)N2CC(C)(C)F)c(F)n1 (centres unmarked) [Compound 2-309]
9,++++ (++++ >90%),CC#CC(=O)NCCc1cc(F)c(C2c3[nH]c4ccccc4c3CC(C)N2CC(C)(C)F)c(F)c1 (centres unmarked) [Compound 2-310]
10,++++ (++++ >90%),C#CCN(C)C(=O)C=CCNCCOc1cc(F)c(C2c3[nH]c4ccccc4c3CC(C)N2CC(C)(C)F)c(F)c1 (centres unmarked) [Compound 2-311]
11,++++ (++++ >90%),CC1Cc2c([nH]c3ccccc23)C(c2ccc(N)cc2)N1CC(C)(C)F (centres unmarked) [Compound 2-312]
12,+ (+ <20%),CC1Cc2c([nH]c3ccccc23)C(c2ccc(N)nc2)N1CC(C)(C)F (centres unmarked) [Compound 2-314]
13,++++ (++++ >90%),CC1Cc2c([nH]c3ccccc23)C(c2ccc(OCCNCC=CC(=O)N(C)C)nc2)N1CC(C)(C)F (centres unmarked) [Compound 2-315]
14,++++ (++++ >90%),C=CC(=O)NCCOc1ccc(C2c3[nH]c4ccccc4c3CC(C)N2CC(C)(C)F)cn1 (centres unmarked) [Compound 2-316]

# Further lines, the molecule ahead of its results:
row,Structure (SMILES),Binding Potential (Percent inhibition)
1,CC1Cc2c([nH]c3ccccc23)C(c2c(F)cc(OCCNCC=CC(=O)N(C)C)nc2F)N1CC(C)(C)F (centres unmarked) [Compound 2-102],+++ (+++ 80-90%)
2,CC1Cc2c([nH]c3ccccc23)C(c2c(F)cc(OCCNCC=CC(=O)N(C)C)cc2F)N1CC(C)(C)F (centres unmarked) [Compound 2-103],++++ (++++ >90%)
3,C[C@@H]1Cc2c([nH]c3ccccc23)[C@@H](c2c(F)cc(OCCNC/C=C/C(=O)N(C)C)cc2F)N1CC(C)(F)CO (some centres unmarked) [Compound 2-106],++++ (++++ >90%)
4,CC1Cc2c([nH]c3ccccc23)C(c2ccc(NCCNCC=CC(=O)N(C)C)nc2)N1CC(C)(C)F (centres unmarked) [Compound 2-107],+++ (+++ 80-90%)
5,CC1Cc2c([nH]c3ccccc23)C(c2c(F)cc(NCCNCC=CC(=O)N(C)C)nc2F)N1CC(C)(C)F (centres unmarked) [Compound 2-108],+++ (+++ 80-90%)
6,CC1Cc2c([nH]c3ccccc23)C(c2c(F)cc(NCCNCC=CC(=O)N(C)C)cc2F)N1CC(C)(C)F (centres unmarked) [Compound 2-109],+++ (+++ 80-90%)
7,CC1Cc2c([nH]c3cc(F)ccc23)C(c2c(F)cc(OCCNCC=CC(=O)N(C)C)cc2F)N1CC(C)(C)F (centres unmarked) [Compound 2-115],++++ (++++ >90%)
8,CC1Cc2c([nH]c3cc(F)ccc23)C(c2c(F)cc(OCCNCC=CC(=O)N(C)C)cc2F)N1CC(C)(F)CO (centres unmarked) [Compound 2-118],++++ (++++ >90%)
9,C#CCCCNC(=O)C=CCNCCOc1cc(F)c(C2c3[nH]c4ccccc4c3CC(C)N2CC(C)(C)F)c(F)c1 (centres unmarked) [Compound 2-300],+++ (+++ 80-90%)
10,CC1Cc2c([nH]c3ccccc23)C(c2c(F)cc(N)cc2F)N1CC(C)(C)F (centres unmarked) [Compound 2-301],+++ (+++ 80-90%)

# Same assay, conditions: HEK293 cells transfected with NanoLuc-target fusion, overnight incubation, washout
activity of an estrogen receptor is inhibited [%],formed a covalent bond with an estrogen receptor [%],Structure (SMILES)
< 20,< 20,CC1Cc2c([nH]c3ccccc23)C(c2ccc(N)nc2)N1CC(C)(C)F (centres unmarked) [Compound 2-314]
